Data from PMC6151961 (Journal of Enzyme Inhibition and Medicinal Chemistry, 2018).

The compounds below were run against CA IX (Homo sapiens, UniProt Q16790) (assay: biochemical). Conditions: not given.

In order of rising “log10 of Ki in nM” value:
1. NS(=O)(=O)c1ccc(C(=O)NNC(=O)Nc2ccc([N+](=O)[O-])cc2)cc1 [A0170]  0.505
2. CC(=O)OC[C@H]1O[C@@H]([S+]([O-])Cc2cn(-c3ccc(S(N)(=O)=O)cc3)nn2)[C@H](OC(C)=O)[C@@H](OC(C)=O)[C@@H]1OC(C)=O (stereo partly drawn) [B0212]  0.996
3. Nc1c(Cl)cc(S(=O)(=O)Nc2nnc(S(N)(=O)=O)s2)cc1Br [A0922]  1.362
4. NS(=O)(=O)c1ccc(NC(=O)Cn2ccc(=O)c(S(N)(=O)=O)c2)cc1 [B0371]  1.491
5. NS(=O)(=O)c1ccc(-c2cccc(C=O)c2)cc1 [A1584]  1.993
6. CC(=O)OC[C@H]1O[C@@H](n2cc(-c3ccc(S(N)(=O)=O)cc3)nn2)[C@H](OC(C)=O)[C@@H](OC(C)=O)[C@@H]1OC(C)=O [A1660]  2.079
7. COC(=O)[C@H]1O[C@@H](n2cc(COC(=O)c3ccc(S(N)(=O)=O)cc3)nn2)[C@H](OC(C)=O)[C@@H](OC(C)=O)[C@@H]1OC(C)=O [A1674]  2.097
8. NS(=O)(=O)c1ccc(C(=O)NCc2cn([C@@H]3O[C@H](CO)[C@H](O)[C@H](O)[C@H]3O)nn2)cc1 [A1960]  2.556
9. NS(=O)(=O)OCCCCOS(N)(=O)=O [A2532]  4.732

Same assay, conditions: experimental value from the library Ki (IDs A…, B…); values equal log10 of Ki in nM

In order of rising “log10 of Ki in nM” value:
1. NS(=O)(=O)c1nnc(NS(=O)(=O)c2ccc(NC(=O)CCC(=O)O)cc2)s1 [A0151]  0.477
2. NS(=O)(=O)c1ccc(CNC(=O)Cc2ccc(F)cc2)cc1 [A0160]  0.491
3. COc1ccc(-c2cnc(C3CCC3)o2)cc1S(N)(=O)=O [B0034]  0.491
4. Nc1nc(N)c2nc(CNCCc3ccc(S(N)(=O)=O)cc3)cnc2n1 [A0285]  0.672
5. NS(=O)(=O)c1ccc(CNS(=O)(=O)c2ccc(NC(=O)c3c(F)c(F)cc(F)c3F)cc2)cc1 [A0340]  0.740
6. COc1ccc(C2=Nn3c(nnc3-c3ccc(S(N)(=O)=O)cc3)SC2)cc1 [A0402]  0.813
7. NS(=O)(=O)c1ccc(-c2cnc(C3CCC3)o2)cc1 [B0121]  0.813
8. O=S1(=O)C=Cc2cc(-c3nnnn3-c3cccc4ccccc34)ccc2O1 [A0400]  0.813
9. COc1cc(OC)c(/C=C(\C#N)C(=O)Nc2ccc(S(N)(=O)=O)cc2)c(OC)c1 [A0495]  0.892
10. Cc1ccc2c(n1)SCc1cnc(Nc3ccc(S(N)(=O)=O)cc3)nc1-2 [A0518]  0.908
11. N#C/C(=C\c1ccc2c(c1)OCO2)C(=O)Nc1ccc(S(N)(=O)=O)cc1 [A0636]  0.978
12. O=C1c2ccccc2S(=O)(=O)N1Cc1cccc([N+](=O)[O-])c1 [A0700]  1.041
13. NS(=O)(=O)c1ccc(C(=O)NCCc2ccc(O)c(O)c2)cc1 [A0813]  1.230
14. NS(=O)(=O)c1cnccc1-n1ccc(=O)cc1 [A0836]  1.262
15. Cc1ccc(-c2cc(CO)nn2-c2ccc(S(N)(=O)=O)cc2)cc1 [A0902]  1.342
16. CCCN(CCC)S(=O)(=O)c1ccc(C(=O)N[C@@H](CCC(=O)O)C(N)=O)cc1 [A0921]  1.362
17. O=c1ccc2ccc(OCc3cn(-c4ccc(C(F)(F)F)cc4)nn3)cc2o1 [A0920]  1.362
18. CCCN(CCC)S(=O)(=O)c1ccc(C(=O)N[C@@H](Cc2c[nH]c3ccccc23)C(N)=O)cc1 [A0923]  1.362
19. COc1ccc(-c2cn(-c3ccc(S(N)(=O)=O)cc3)c(=S)[nH]2)cc1 [A1063]  1.477
20. Cc1ccc(-c2nn(-c3ccc(S(N)(=O)=O)cc3)cc2-c2nc3ccccc3[nH]2)cc1 [A1267]  1.693
21. NS(=O)(=O)Nc1ccc(S(=O)(=O)Nc2nnc(S(N)(=O)=O)s2)cc1 [A1288]  1.716
22. NS(=O)(=O)c1ccc(-c2cnc(C3CCC3)o2)s1 [B0649]  2.193
23. COc1cccc(C(=O)CN2C(=O)C=C(C)OS2(=O)=O)c1 [A1737]  2.207
24. COc1ccc2c(c1)/C(=N/c1ccc(C(=O)Nc3ccc(S(N)(=O)=O)cc3)cc1)C(=O)N2 [A1756, reference compound]  2.243
25. CCCN(CCC)S(=O)(=O)c1ccc(C(=O)Nc2ccccc2[N+](=O)[O-])cc1 [A1771]  2.283
26. CCCN(CCC)S(=O)(=O)c1ccc(C(=O)N[C@@H](CS)C(=O)O)cc1 [A1793]  2.305
27. CCCCC(=O)OC[C@H]1O[C@@H](n2cc(-c3ccc(S(N)(=O)=O)cc3)nn2)[C@H](OC(=O)CCCC)[C@@H](OC(=O)CCCC)[C@H]1OC(=O)CCCC [A1944]  2.525
28. NS(=O)(=O)c1ccc(CNC(=O)CCCNC(=O)NCc2ccccc2)cc1 [A2003]  2.660

Same assay, conditions: experimental value from the library Ki (IDs A…, B…); values equal log10 of Ki in nM; read-out: pKi (exp.) (converted)

Work on `Nc1nc(N)c2nc(CNCCc3ccc(S(=O)(=O)O)cc3)cnc2n1` [A2175] yielded a Ki of 1000 nM.

Same assay, conditions: experimental value used for the QSPR model, library compounds (IDs A…, B…); equals log10 of Ki in nM

In order of rising “log10 of Ki in nM” value:
1. NS(=O)(=O)c1ccc(NC2=NC(=O)/C(=N/Nc3ccc(Cl)cc3)S2)cc1 [B0138]  0.863
2. CC(C)(C)OC(=O)NCCCCOc1ccc(S(N)(=O)=O)cc1 [A0486]  0.886
3. NS(=O)(=O)c1ccc(CCNC(=S)Nc2ccc(C(=O)O)cc2)cc1 [A0666]  1.000
4. NS(=O)(=O)c1cc(-c2cnc(C3CC3)o2)cs1 [B0238]  1.114
5. NS(=O)(=O)c1ccc(Nc2nc(Nc3ccccc3)nc(N3CCOCC3)n2)cc1 [A0867]  1.303
6. NS(=O)(=O)c1ccc(/N=C/c2ccccc2)c(F)c1 [A1026]  1.447
7. NS(=O)(=O)c1cc(-c2cnc(C(=O)N3CCOCC3)o2)cs1 [B0343]  1.447
8. CCCC(=O)OC[C@H]1O[C@@H](n2cc(-c3ccc(S(N)(=O)=O)cc3)nn2)[C@H](OC(=O)CCC)[C@@H](OC(=O)CCC)[C@H]1OC(=O)CCC [A1285]  1.714
9. O=S1(=O)C=Cc2cc(-n3cc(C4CC4)nn3)ccc2O1 [A1333]  1.782
10. O=S1(=O)C=Cc2cc(-n3cnnn3)ccc2O1 [A1395]  1.836
11. NS(=O)(=O)c1cccc(-c2cn([C@@H]3O[C@H](CO)[C@@H](O)[C@H](O)[C@H]3O)nn2)c1 [A1463]  1.893
12. Cc1c(C(=O)NCCN(C)C)cc(-c2ccc(-c3ccccc3)cc2)n1-c1ccc(S(N)(=O)=O)cc1 [A1493]  1.919
13. CC(C)(F)CNS(=O)(=O)c1ccc(N)cc1 [A1490]  1.919
14. Nc1c(Br)cc(S(N)(=O)=O)cc1I [A1512]  1.934
15. Cc1cc(C)c(S(=O)(=O)Nc2ccc(C3C4=C(CC(C)(C)CC4=O)N(c4ccc(S(N)(=O)=O)cc4)C4=C3C(=O)CC(C)(C)C4)cc2)c(C)c1 [A1534]  1.954
16. Cc1ccc2c(c1)/C(=N\c1ccc(C(=O)Nc3ccc(S(N)(=O)=O)cc3)cc1)C(=O)N2 [B0670]  2.303
17. CCCCC(=O)OC[C@H]1O[C@@H](n2cc(-c3ccc(S(N)(=O)=O)cc3)nn2)[C@H](OC(=O)CCCC)[C@@H](OC(=O)CCCC)[C@@H]1OC(=O)CCCC [A2148]  2.978
18. CC1(C)CC(=O)C2=C(C1)N(c1ccc(S(N)(=O)=O)cc1)C1=C(C(=O)CC(C)(C)C1)C2c1ccc([N+](=O)[O-])cc1 [B0775]  3.009
19. Cc1ccc(NC(=S)NNC(=O)c2ccccc2O)cc1 [A2191]  3.095
20. Cc1cc(C)oc(=O)c1 [B0786]  3.393
21. Oc1ccccc1/C=N/CCCC/N=C/c1ccccc1O [A2462]  4.021

Same assay, conditions: experimental value used for the QSPR model, library compounds (IDs A…, B…); equals log10 of Ki in nM; read-out: pKi (exp.) (converted)

Work on `O=C(Cc1ccccc1Br)Oc1ccc2c(c1)OS(=O)(=O)C=C2` [A2451] yielded a Ki of 10000 nM.

Same assay, conditions: library compounds with IDs A… and B…; from observed Ki (nM)

In order of rising “log10 of Ki in nM” value:
1. Nc1cc(Nc2ccc(S(N)(=O)=O)cc2)nc(N)n1 [A0250]  0.591
2. N#Cc1c(-c2ccc(Br)cc2)cn(-c2ccc(S(N)(=O)=O)cc2)c1NC(=O)c1ccc(Br)cc1 [B0101]  0.724
3. CCOC(=O)c1ccc(NC(=O)NNC(=O)c2ccc(S(N)(=O)=O)cc2)cc1 [A0551]  0.929
4. O=S1(=O)C=Cc2cc(-n3cc(-c4cccc(F)c4)nn3)ccc2O1 [A0598]  0.954
5. NS(=O)(=O)OC1CCN(S(=O)(=O)[C@@H]2O[C@H](CO)[C@@H](O)[C@H](O)[C@H]2O)CC1 [A0701]  1.041
6. NS(=O)(=O)c1ccc(-n2cc(-c3ccc(Br)cc3)c3c2N=CN2NC(=O)CN=C32)cc1 [A0710]  1.068
7. Cc1cc(C)c(S(=O)(=O)Nc2cccc(C3C4=C(CC(C)(C)CC4=O)N(c4ccc(S(N)(=O)=O)cc4)C4=C3C(=O)CC(C)(C)C4)c2)c(C)c1 [A1535]  1.954
8. O=C1NS(=O)(=O)c2cc([N+](=O)[O-])ccc21 [A1570]  1.981
9. NS(=O)(=O)c1ccc2nc(-n3cc(/C=N/O)c(-c4ccc([N+](=O)[O-])cc4)n3)sc2c1 [A1655]  2.076
10. Cc1c(C(=O)N2CCN(C)CC2)cc(-c2ccc3ccccc3c2)n1-c1ccc(S(N)(=O)=O)cc1 [A1687]  2.124
11. COc1ccc(NC(=S)Nc2c(C#N)c(-c3ccc(Br)cc3)cn2-c2ccc(S(N)(=O)=O)cc2)cc1 [A1714]  2.149
12. CCCN(CCC)S(=O)(=O)c1ccc(C(=O)NCC)cc1 [A1724]  2.179
13. NS(=O)(=O)c1ccc(/N=c2\scc(-c3ccc(Br)cc3)n2C2CCCCC2)cc1 [A1905]  2.442
14. Cc1ccc(-c2cnc(C3CC3)o2)cc1S(N)(=O)=O [A1938]  2.502
15. Cc1ccc(-c2cnc(C3CC3)o2)cc1S(N)(=O)=O [B0710]  2.502
16. CC1(C)CC(=O)C2=C(C1)N(c1ccc(S(N)(=O)=O)cc1)C1=C(C(=O)CC(C)(C)C1)C2c1cccc([N+](=O)[O-])c1 [A1986]  2.623
17. Cc1cc(C)cc(NC(=O)Nc2ccc3c(C)cc(=O)oc3c2)c1 [A2046]  2.785
18. NC(=S)NNC(=O)c1ccncc1 [A2157]  2.988
